The target of experiment [1] is T1, mouse PPARγ (Mus musculus, UniProt P37238).
T1 sequence (P37238 204-505): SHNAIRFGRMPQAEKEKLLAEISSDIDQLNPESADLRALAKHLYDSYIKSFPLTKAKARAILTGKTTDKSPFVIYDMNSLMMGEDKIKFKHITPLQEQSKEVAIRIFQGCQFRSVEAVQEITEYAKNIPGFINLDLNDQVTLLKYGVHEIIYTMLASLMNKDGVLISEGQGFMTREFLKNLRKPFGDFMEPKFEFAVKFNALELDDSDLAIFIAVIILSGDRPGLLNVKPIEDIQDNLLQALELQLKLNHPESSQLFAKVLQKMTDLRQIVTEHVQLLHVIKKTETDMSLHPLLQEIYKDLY
In words: PPARγ radioligand binding assay (GST-PPARγ-LBD fusion protein, scintillation proximity). Conditions: SPA. From the text: (§1) Full-length cDNA clones for human PPARα and mouse PPARγ were obtained by RT-PCR from human adipose and mouse liver cRNA, respectively, cloned into plasmid vectors and verified by DNA sequencing. […] To accomplish this, the portions of the cloned sequences encoding the LBDs were amplified from the full-length clones by PCR and then subcloned into the plasmid vectors. Final clones were verified by DNA sequence analysis.
(§2) Induction, expression, and purification of GST-LBD fusion proteins were performed in E. coli strain BL21(pLysS) cells by standard methods (Ref: Current Protocols in Molecular Biology, Wiley Press, edited by Ausubel et al.).
(§3) Radioligand Binding Assay
(§4) PPARγ receptor binding was assayed in TKE50 (50 mM Tris-HCl, pH 8, 50 mM KCl, […], 0.1 mg/ml fatty acid-free […] and 10 mM DTT). For each 96 well reaction an 140 ng equivalent of GST-PPARγ-LBD fusion protein was bound to 10 ug SPA beads (PharmaciaAmersham) in a final volume of 50 ul by shaking. The resulting slurry was incubated for 1 h at RT and centrifuged for 2 min at 1300 g. The supernatant containing unbound protein was removed and the semidry pellet containing the recptor-coated beads was resolved in 50 ul of TKE. For radioligand binding e.g. 10000 dpm 2(S)-(2-benzoyl-phenylamino)-3-{4-[1, 1-ditritio-2-(5-methyl-2-phenyl-oxazol-4-yl)-ethoxy]-phenyl}-propionic acid in 50 ul were added, the reaction incubated at RT for 1h and scintillation proximity counting performed. All binding assays were performed in 96 well plates and the amount of bound ligand measured on a Packard TopCount using OptiPlates (Packard). Nonspecific binding was determined in the presence of 10^−4 M unlabelled compound. Dose response curves were done in triplicates within a range of concentration from 10^−10 M to 10^−4 M.
A general note: Scintillation proximity formats need no separation of bound from free tracer.

Experiment [2] has as its target T2, human PPARα (Homo sapiens, UniProt Q07869).
T2 sequence (Q07869 167-468 limits assumed): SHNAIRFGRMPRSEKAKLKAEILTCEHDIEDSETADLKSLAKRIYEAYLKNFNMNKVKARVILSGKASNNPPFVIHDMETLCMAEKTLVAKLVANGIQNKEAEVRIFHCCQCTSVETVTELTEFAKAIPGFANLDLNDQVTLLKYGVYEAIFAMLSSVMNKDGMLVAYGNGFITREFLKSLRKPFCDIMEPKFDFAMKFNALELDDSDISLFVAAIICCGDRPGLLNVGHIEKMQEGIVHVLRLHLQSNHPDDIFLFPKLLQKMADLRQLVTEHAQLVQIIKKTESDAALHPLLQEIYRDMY
In words: Luciferase transcriptional reporter gene assay, pFA-PPARα-LBD in BHK21 cells. The experiment is classed as cell-based. The following applies: Gal4-PPARα-LBD.
Text: as §1
(§5) Luciferase Transcriptional Reporter Gene Assays
(§6) Baby hamster kidney cells (BHK21 ATCC CCL10) were grown in DMEM medium containing 10% FBS at 37° C. in a […] atmosphere. Cells were seeded in 6 well plates at a density of 10^5 Cells/well and then transiently batch-transfected with either the pFA-PPARγ-LBD or pFA-PPARα-LBD expression plasmids plus the pFR-luc reporter plasmid and an expression plasmid encoding the secretable form of alkaline phosphatase (SEAP) as a normalization control. […] Six hours following transfection, the cells were harvested by trypsinization and seeded in 96 well plates at a density of 10^4 cells/well. After 24 hours to allow attachment of cells, the medium was removed and replaced with 100 ul of phenol red-free medium containing the test substances or control ligands (final. 0.1% DMSO). Following incubation of the cells for 24 hours with substances, 50 ul of the supernatant was recovered and analyzed for SEAP activity (Roche Molecular Biochemicals). The remainder of the supernatant was discarded, 50 ul PBS was added per well followed by one volume of Luciferase Constant-Light Reagent (Roche Molecular Biochemicals) to lyse the cells and initiate the luciferase reaction. Luminescence for both SEAP and luciferase was measured in a Packard TopCount. Luciferase activity was normalized to the SEAP control and transcriptional activation in the presence of a test substance was expressed as fold-activation over cells incubated in the absence of the substance. EC50 values were calculated using the XLfit program (ID Business Solutions Ltd. UK).
In general terms: In a reporter assay the amount or activity of a reporter protein is the signal.

For experiment [3], the target named is T2, human PPARα. In words: PPARα radioligand binding assay (GST-PPARα-LBD fusion protein). The arrangement: made in house; host or cells: E. coli BL21(pLysS).
Text: as §1, §2, §3
PPARα receptor binding was assayed in TKE10 (10 mM Tris-HCl, pH 8, 50 mM KCl, 2 mM EDTA, […] fatty acid free BSA and 10 mM DTT). For each 96 well 2.4 ug equivalent of GST-PPARα-LBD fusion protein and radioligand, e.g. 40000 dpm 2(S)-(2-benzoyl-phenylamino)-3-{4-[1,1-ditritio-2-(5-methyl-2-phenyl-oxazol-4-yl)-ethoxy]-phenyl}-propionic acid, were incubated in 100 ul volume at RT for 2 hrs. Bound ligand was removed from unbound ligand by solid phase separation using MultiScreen plates (Millipore) filled with 80 ul of SG25 according to the manufacturer's recommendations.
as §4

The target of experiment [4] is T1, mouse PPARγ. The experiment can be described thus: Luciferase transcriptional reporter gene assay, pFA-PPARγ-LBD in BHK21 cells. It counts as cell-based. The arrangement: expressed in transfected cells; host or cells: BHK21 (ATCC CCL10). Conditions: Gal4-PPARγ-LBD.
Text: as §1, §5, §6

As usually defined, the IC50 is the concentration at which inhibition is half-maximal. A lower IC50 goes with inhibition by little substance. Usually EC50 stands for the concentration giving half of the maximal effect. In the case of `CCOC(Cc1ccc2c(c1)c(C)cn2Cc1nc(-c2ccc(F)c(C)c2)oc1C)C(=O)O` (racemic) [Example 39, Rac-2-Ethoxy-3-{1-[2-(4-fluoro-3-methyl-phenyl)-5-methyl-oxazol-4-ylmethyl]-3-methyl-1H-indol-5-yl}-propionic Acid], the results for the IC50 at mouse PPARγ [1] and on human PPARα [3] were 110 nM and 60 nM, respectively. Besides, the half-maximal effective concentration (EC50) stood at 470 nM on human PPARα [2] and 20 nM at mouse PPARγ [4].

Turning to `CCOC(Cc1ccc2c(c1)cc(C)n2Cc1csc(-c2ccccc2)n1)C(=O)O` (racemic) [Example 44, Rac-2-Ethoxy-3-[2-methyl-1-(2-phenyl-thiazol-4-ylmethyl)-1H-indol-5-yl]-propionic Acid], the IC50 is 1410 nM at mouse PPARγ [1] and 1640 nM at human PPARα [3]. For the same molecule, the values for the EC50 on human PPARα [2] and on mouse PPARγ [4] were 5240 nM and 2700 nM, respectively.

`CCO[C@@H](Cc1ccc2c(ccn2Cc2nc(-c3ccccc3Cl)oc2C)c1)C(=O)O` [Example 5, (S)-3-{1-[2-(2-Chloro-phenyl)-5-methyl-oxazol-4-ylmethyl]-1H-indol-5-yl}-2-ethoxy-propionic Acid] gave an EC50 on human PPARα [2] of 1520 nM. The same molecule came in with an IC50 on human PPARα [3] of 240 nM.

Turning to `CCO[C@@H](Cc1ccc2c(ccn2Cc2nc(-c3ccccc3OC)oc2C)c1)C(=O)O` [Example 8, (S)-2-Ethoxy-3-{1-[2-(2-methoxy-phenyl)-5-methyl-oxazol-4-ylmethyl]-1H-indol-5-yl}-propionic Acid], the IC50 stood at 400 nM on mouse PPARγ [1] and 280 nM on human PPARα [3]. Moreover, the EC50 on human PPARα [2] stood at 190 nM; at mouse PPARγ [4], 560 nM.

With `CCO[C@@H](Cc1ccc2c(ccn2Cc2nc(-c3ccc(C(F)(F)F)cc3)oc2C)c1)C(=O)O` [Example 18, (S)-2-Ethoxy-3-{1-[5-methyl-2-(4-trifluoromethyl-phenyl)-oxazol-4-ylmethyl]-1H-indol-5-yl}-propionic Acid], the results for the concentration for half-maximal inhibition (IC50) on mouse PPARγ [1] and at human PPARα [3] were 180 nM and 30 nM, respectively. The values for the EC50 on human PPARα [2] and on mouse PPARγ [4] were 80 nM and 130 nM, respectively.

On human PPARα [2], `CCO[C@@H](Cc1ccc2c(ccn2Cc2nc(-c3cc(OC)cc(OC)c3)oc2C)c1)C(=O)O` [Example 21, (S)-3-{1-[2-(3,5-Dimethoxy-phenyl)-5-methyl-oxazol-4-ylmethyl]-1H-indol-5-yl}-2-ethoxy-propionic Acid] showed an EC50 of 30 nM. Also, at human PPARα [3], the IC50 worked out at 30 nM.

Consider `CCO[C@@H](Cc1ccc2c(ccn2Cc2nc(-c3ccc(F)c(C)c3)oc2C)c1)C(=O)O` [Example 25, (S)-2-Ethoxy-3-{1-[2-(4-fluoro-3-methyl-phenyl)-5-methyl-oxazol-4-ylmethyl]-1H-indol-5-yl}-propionic Acid], for which the figures for the concentration for half-maximal inhibition (IC50) at mouse PPARγ [1] and at human PPARα [3] were 50 nM and 120 nM, respectively. In addition, the EC50 came out at 60 nM on human PPARα [2] and 50 nM on mouse PPARγ [4].

(Values after US6890947B2, “Indolyl derivatives” (Hoffmann-La Roche Inc., priority 2002, dated 2005).)
